IC50 data for 18 molecules are collected here from patent US10738057B2, “Tertiary alcohols as PI3K-γ inhibitors” (Incyte Corporation, priority 2017, dated 2020).

Structures can show the parent of a compound that is named as a salt. A value given as a limit tells only on which side of the number the result lay.

For assay [1], the target named is PI3Kγ (p110γ) Recombinant Human Protein (Homo sapiens (Human), UniProt P48736). The experiment in a line: PI3K-γ scintillation proximity assay. Format: biochemical. The note with it: 20 μM PIP2, 2 μM ATP, 13 nM PI3Kγ, 120 min, room temperature. An outline of the steps: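 Radiometric SPA in 20 mM MOPS pH 6.7, 10 mM MgCl2, 5 mM DTT, 0.03% CHAPS, 2% DMSO. Stopped with EDTA and WGA SPA beads for scintillation counting. IC50 fitted from % solvent-control activity versus log concentration.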
Sequence of PI3Kγ (p110γ) Recombinant Human Protein (P48736 whole entry): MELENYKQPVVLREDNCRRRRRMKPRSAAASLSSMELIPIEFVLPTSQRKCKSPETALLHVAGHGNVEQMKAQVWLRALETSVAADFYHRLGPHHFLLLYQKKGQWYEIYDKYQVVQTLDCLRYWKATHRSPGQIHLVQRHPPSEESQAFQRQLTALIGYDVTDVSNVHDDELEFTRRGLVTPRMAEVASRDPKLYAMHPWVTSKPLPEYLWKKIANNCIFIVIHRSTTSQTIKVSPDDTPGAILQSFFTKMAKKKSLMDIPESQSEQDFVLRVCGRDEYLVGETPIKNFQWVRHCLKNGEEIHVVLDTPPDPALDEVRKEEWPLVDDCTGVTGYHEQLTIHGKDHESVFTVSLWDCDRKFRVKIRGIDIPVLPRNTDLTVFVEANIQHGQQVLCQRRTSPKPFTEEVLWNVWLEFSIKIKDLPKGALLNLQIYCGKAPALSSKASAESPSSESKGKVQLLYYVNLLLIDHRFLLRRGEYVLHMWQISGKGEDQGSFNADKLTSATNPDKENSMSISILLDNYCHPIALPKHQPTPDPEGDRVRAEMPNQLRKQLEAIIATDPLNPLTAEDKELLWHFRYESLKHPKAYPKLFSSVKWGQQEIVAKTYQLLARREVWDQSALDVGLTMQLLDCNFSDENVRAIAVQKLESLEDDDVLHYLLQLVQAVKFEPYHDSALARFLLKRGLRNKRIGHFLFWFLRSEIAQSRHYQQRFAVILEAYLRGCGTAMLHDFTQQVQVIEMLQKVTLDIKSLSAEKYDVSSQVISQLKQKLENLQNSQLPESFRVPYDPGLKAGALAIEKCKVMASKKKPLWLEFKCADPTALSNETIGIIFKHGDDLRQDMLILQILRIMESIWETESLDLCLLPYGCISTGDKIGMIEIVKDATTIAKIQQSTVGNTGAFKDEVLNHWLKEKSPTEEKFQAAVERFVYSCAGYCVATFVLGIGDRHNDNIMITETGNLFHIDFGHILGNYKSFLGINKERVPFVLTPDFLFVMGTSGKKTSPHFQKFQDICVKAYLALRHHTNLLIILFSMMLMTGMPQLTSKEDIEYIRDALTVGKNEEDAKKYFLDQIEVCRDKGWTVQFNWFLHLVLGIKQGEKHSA
For orientation: Scintillation proximity formats need no separation of bound from free tracer.

The target of assay [2] is PI3Kδ (p110δ/p85α) Recombinant Human Protein (Homo sapiens (Human), UniProt O00329). As to the kind of experiment: PI3Kδ scintillation proximity assay. The assay is classed as biochemical. The note with it: 20 μM PIP2, 2 μM ATP, 3.4 nM PI3Kδ, 120 min, room temperature; read-out: PI3Kδ IC50. An outline of the steps: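 Recombinant human p110δ/p85α was run at room temperature in 20 mM MOPS pH 6.7, 10 mM MgCl2, 5 mM DTT, 0.03% CHAPS, 2% DMSO. Substrates were 20 µM PIP2 and 2 µM ATP with [γ-33P]ATP. Product was captured overnight on WGA SPA beads and counted by scintillation; IC50 fitted from percent of solvent control versus log concentration.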
Sequence of PI3Kδ (p110δ/p85α) Recombinant Human Protein (O00329 whole entry): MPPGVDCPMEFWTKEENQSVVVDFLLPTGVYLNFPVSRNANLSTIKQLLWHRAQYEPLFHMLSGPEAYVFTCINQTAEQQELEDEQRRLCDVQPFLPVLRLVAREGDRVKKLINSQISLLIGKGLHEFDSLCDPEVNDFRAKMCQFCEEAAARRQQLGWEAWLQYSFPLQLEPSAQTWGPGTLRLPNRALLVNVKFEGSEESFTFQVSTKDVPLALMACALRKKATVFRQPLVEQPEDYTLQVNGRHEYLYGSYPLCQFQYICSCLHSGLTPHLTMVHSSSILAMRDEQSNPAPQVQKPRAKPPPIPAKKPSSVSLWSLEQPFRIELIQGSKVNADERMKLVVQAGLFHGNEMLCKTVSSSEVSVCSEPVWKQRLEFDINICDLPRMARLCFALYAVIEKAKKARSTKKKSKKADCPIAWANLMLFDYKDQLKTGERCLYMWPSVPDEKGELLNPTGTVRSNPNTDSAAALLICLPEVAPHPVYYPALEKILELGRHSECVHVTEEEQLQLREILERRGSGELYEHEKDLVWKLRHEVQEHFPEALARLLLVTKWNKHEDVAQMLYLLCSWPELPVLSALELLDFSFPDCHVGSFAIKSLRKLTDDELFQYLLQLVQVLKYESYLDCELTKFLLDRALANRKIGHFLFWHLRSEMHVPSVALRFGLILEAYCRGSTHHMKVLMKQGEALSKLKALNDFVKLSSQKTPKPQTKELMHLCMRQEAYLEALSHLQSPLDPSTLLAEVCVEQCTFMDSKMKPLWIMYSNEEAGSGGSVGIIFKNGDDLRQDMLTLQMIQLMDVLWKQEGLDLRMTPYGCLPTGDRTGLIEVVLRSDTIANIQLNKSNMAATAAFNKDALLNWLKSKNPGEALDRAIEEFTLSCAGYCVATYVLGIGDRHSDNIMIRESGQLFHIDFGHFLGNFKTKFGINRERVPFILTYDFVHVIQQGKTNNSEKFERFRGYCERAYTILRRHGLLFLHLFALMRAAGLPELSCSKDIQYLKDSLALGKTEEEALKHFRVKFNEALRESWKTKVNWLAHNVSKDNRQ
Sequence of PI3Kδ (p110δ/p85α) Recombinant Human Protein (P27986 whole entry partner): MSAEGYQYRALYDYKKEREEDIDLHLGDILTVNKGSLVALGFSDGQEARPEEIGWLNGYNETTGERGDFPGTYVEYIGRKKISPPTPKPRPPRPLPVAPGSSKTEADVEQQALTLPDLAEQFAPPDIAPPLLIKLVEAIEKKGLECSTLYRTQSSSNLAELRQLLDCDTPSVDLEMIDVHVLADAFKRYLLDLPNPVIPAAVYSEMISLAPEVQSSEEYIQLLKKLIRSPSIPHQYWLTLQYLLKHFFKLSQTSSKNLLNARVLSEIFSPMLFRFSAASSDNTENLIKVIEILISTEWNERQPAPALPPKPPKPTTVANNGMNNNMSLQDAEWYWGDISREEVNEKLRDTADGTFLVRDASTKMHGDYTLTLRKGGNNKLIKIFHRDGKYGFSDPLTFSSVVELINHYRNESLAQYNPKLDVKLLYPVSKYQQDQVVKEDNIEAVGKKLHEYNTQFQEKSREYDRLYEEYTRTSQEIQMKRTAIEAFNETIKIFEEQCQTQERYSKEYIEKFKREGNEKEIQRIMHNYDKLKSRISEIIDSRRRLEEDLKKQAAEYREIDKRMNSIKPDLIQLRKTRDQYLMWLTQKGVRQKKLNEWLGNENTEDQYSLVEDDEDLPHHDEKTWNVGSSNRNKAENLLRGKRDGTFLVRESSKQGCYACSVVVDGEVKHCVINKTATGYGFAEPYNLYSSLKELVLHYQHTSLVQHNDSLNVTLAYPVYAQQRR

Assay [3] deals with Phosphorylated Ribosomal Protein S6 (RPS6) in THP-1 cells. As to the kind of experiment: THP-1 RPS6 ELISA assay. Format: cell-based, Human. To be noted: Homo sapiens, THP-1, THP-1 cells, serum starved, 2 h compound, 10 nM MCP-1 for 15 min, phospho-RPS6 ELISA; read-out: PI3Kγ_THP1_RPS6_ELISA IC50. In short, it runs like this: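 Phospho-RPS6 in lysates measured by ELISA at 450 nm, corrected at 540 nm, after MCP-1 challenge (10 nM, 15 min) of THP-1 cells that were starved overnight and exposed to test compound for 2 h at 37° C, 2×10^5 cells/well. Curve fit of percent inhibition gives IC50.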

The term IC50 denotes the midpoint of a concentration-inhibition curve. On to `Cc1ccc(C(C)(O)C(F)F)cc1-c1cnc2c(N)nc(-c3cc(C(N)=O)ccc3F)cn12` (stereo not drawn) [Example 31, 3-(8-Amino-3-(5-(1,1-difluoro-2-hydroxypropan-2-yl)-2-methylphenyl)imidazo[1,2-a]pyrazin-6-yl)-4-fluorobenzamide], for which the results for the IC50 in assay [1], in assay [2] and in assay [3] were under 100 nM, 100 to 500 nM and 100 to 500 nM, respectively.
`COc1ncccc1-c1cn2c(-c3cc(C(C)(O)C(F)F)ccc3C)cnc2c(N)n1` (stereo not drawn) [Example 33, 2-(3-(8-Amino-6-(2-methoxypyridin-3-yl)imidazo[1,2-a]pyrazin-3-yl)-4-methylphenyl)-1,1-difluoropropan-2-ol]: the figures for the IC50 in assay [1], in assay [2] and in assay [3] were under 100 nM, 100 to 500 nM and under 100 nM, respectively.
Consider `Cc1ncc(-c2cn3c(-c4cc(C(C)(O)C(F)F)ccc4C)cnc3c(N)n2)s1` (stereo not drawn) [Example 34, 2-(3-(8-Amino-6-(2-methylthiazol-5-yl)imidazo[1,2-a]pyrazin-3-yl)-4-methylphenyl)-1,1-difluoropropan-2-ol], for which the IC50 in assay [1] was under 100 nM; in assay [2] it was under 100 nM; in assay [3], 100 to 500 nM.
In the case of `Cc1ccc(C(C)(O)C(F)F)cc1-c1cnc2c(N)nc(-c3ccnc(C)c3F)cn12` (stereo not drawn) [Example 35, 2-(3-(8-Amino-6-(3-fluoro-2-methylpyridin-4-yl)imidazo[1,2-a]pyrazin-3-yl)-4-methylphenyl)-1,1-difluoropropan-2-ol], the IC50 in assay [1], in assay [2] and in assay [3] was under 100 nM each time.
With `Cc1ccc(C(C)(O)C(F)F)cc1-c1cnc2c(N)nc(-c3cnn(C)c3C)cn12` (stereo not drawn) [Example 36, 2-(3-(8-Amino-6-(1,5-dimethyl-1H-pyrazol-4-yl)imidazo[1,2-a]pyrazin-3-yl)-4-methylphenyl)-1,1-difluoropropan-2-ol], the IC50 in assay [1] was under 100 nM; in assay [2], under 100 nM; in assay [3], 100 to 500 nM.
With `Cc1ccc(C(C)(O)C(F)F)cc1-c1cnc2c(N)nc(-c3cnn(C)c3)cn12` (stereo not drawn) [Example 37, 2-(3-(8-Amino-6-(1-methyl-1H-pyrazol-4-yl)imidazo[1,2-a]pyrazin-3-yl)-4-methylphenyl)-1,1-difluoropropan-2-ol], the IC50 in assay [1], in assay [2] and in assay [3] was under 100 nM in each case.
Consider `Cc1ccc(C(C)(O)C(F)F)cc1-c1cnc2c(N)nc(-c3cn(C)nc3C)cn12` (stereo not drawn) [Example 38, 2-(3-(8-Amino-6-(1,3-dimethyl-1H-pyrazol-4-yl)imidazo[1,2-a]pyrazin-3-yl)-4-methylphenyl)-1,1-difluoropropan-2-ol], for which the IC50 in assay [1], in assay [2] and in assay [3] was under 100 nM each time.
Consider `Cc1ccc(C(C)(O)C(F)F)cc1-c1cnc2c(N)nc(-c3c(C)n[nH]c3C)cn12` (stereo not drawn) [Example 39, 2-(3-(8-Amino-6-(3,5-dimethyl-1H-pyrazol-4-yl)imidazo[1,2-a]pyrazin-3-yl)-4-methylphenyl)-1,1-difluoropropan-2-ol], for which the IC50 in assay [1], in assay [2] and in assay [3] was under 100 nM each time.
Regarding `Cc1ccc(C(C)(O)C(F)F)cc1-c1cnc2c(N)nc(-c3cn[nH]c3)cn12` (stereo not drawn) [Example 40, 2-(3-(8-Amino-6-(1H-pyrazol-4-yl)imidazo[1,2-a]pyrazin-3-yl)-4-methylphenyl)-1,1-difluoropropan-2-ol], the IC50 was under 100 nM in assay [1], under 100 nM in assay [2] and 100 to 500 nM in assay [3].
With `Cc1cc(-c2cn3c(-c4cc(C(C)(O)C(F)F)ccc4C)cnc3c(N)n2)n(C)n1` (stereo not drawn) [Example 41, 2-(3-(8-Amino-6-(1,3-dimethyl-1H-pyrazol-5-yl)imidazo[1,2-a]pyrazin-3-yl)-4-methylphenyl)-1,1-difluoropropan-2-ol], the IC50 in assay [1] was under 100 nM; in assay [2], 100 to 500 nM; in assay [3], 100 to 500 nM.
On to `Cc1ccc(C(C)(O)C(F)F)cc1-c1cnc2c(N)nc(-c3c(C)cnn3C)cn12` (stereo not drawn) [Example 42, 2-(3-(8-Amino-6-(1,4-dimethyl-1H-pyrazol-5-yl)imidazo[1,2-a]pyrazin-3-yl)-4-methylphenyl)-1,1-difluoropropan-2-ol], for which the IC50 in assay [1] was under 100 nM; in assay [2], 100 to 500 nM; in assay [3] it was 100 to 500 nM.
As to `Cc1ccc(C(C)(O)C(F)F)cc1-c1cnc2c(N)nc(-c3ccn(C)n3)cn12` (stereo not drawn) [Example 43, 2-(3-(8-Amino-6-(1-methyl-1H-pyrazol-3-yl)imidazo[1,2-a]pyrazin-3-yl)-4-methylphenyl)-1,1-difluoropropan-2-ol], the IC50 is under 100 nM in assay [1], 100 to 500 nM in assay [2] and 500 to 1000 nM in assay [3].
For `Cc1ccc(C(C)(O)C(F)F)cc1-c1cnc2c(N)nc(-c3ccc(CO)nc3)cn12` (stereo not drawn) [Example 46, 2-(3-(8-Amino-6-(6-(hydroxymethyl)pyridin-3-yl)imidazo[1,2-a]pyrazin-3-yl)-4-methylphenyl)-1,1-difluoropropan-2-ol trifluoroacetate], the IC50 in assay [1] is under 100 nM; in assay [2], 100 to 500 nM; in assay [3], under 100 nM.
For the molecule `Cc1cc(-c2cn3c(-c4cc(C(C)(O)C(F)F)ccc4C)cnc3c(N)n2)on1` (stereo not drawn) [Example 48, 2-(3-(8-Amino-6-(3-methylisoxazol-5-yl)imidazo[1,2-a]pyrazin-3-yl)-4-methylphenyl)-1,1-difluoropropan-2-ol trifluoroacetate], the IC50 is under 100 nM in assay [1], 100 to 500 nM in assay [2] and 100 to 500 nM in assay [3].
Consider `Cc1ccc(C(C)(O)C(F)F)cc1-c1cnc2c(N)nc(-n3cncn3)cn12` (stereo not drawn) [Example 49, 2-(3-(8-Amino-6-(1H-1,2,4-triazol-1-yl)imidazo[1,2-a]pyrazin-3-yl)-4-methylphenyl)-1,1-difluoropropan-2-ol], for which the IC50 in assay [1] was under 100 nM; in assay [2] it was 100 to 500 nM; in assay [3], 100 to 500 nM.
For `CCC(O)(c1ccc(C)c(-c2cnc3c(N)nc(-c4ccnn4C)cn23)c1)C(F)F` (stereo not drawn) [Example 50, 2-(3-(8-Amino-6-(1-methyl-1H-pyrazol-5-yl)imidazo[1,2-a]pyrazin-3-yl)-4-methylphenyl)-1,1-difluorobutan-2-ol trifluoroacetate], the half-inhibitory concentration (IC50) in assay [1] is under 100 nM; in assay [2] it was 100 to 500 nM; in assay [3] it was 100 to 500 nM.
`Cc1ccc(C2(O)CCCC2F)cc1-c1cnc2c(N)nc(C(F)(F)F)cn12` (stereo not drawn) [Example 61, 1-(3-(8-Amino-6-(trifluoromethyl)imidazo[1,2-a]pyrazin-3-yl)-4-methylphenyl)-2-fluorocyclopentan-1-ol trifluoroacetate salt]: the values for the IC50 in assay [1], in assay [2] and in assay [3] were under 100 nM, 100 to 500 nM and 100 to 500 nM, respectively.
As to `CNC(=O)C1CC1c1cn2c(-c3cc(C(C)(O)C(F)F)ccc3C)cnc2c(N)n1` (stereo not drawn) [Example 76, 2-(8-Amino-3-(5-(1,1-difluoro-2-hydroxypropan-2-yl)-2-methylphenyl)imidazo[1,2-a]pyrazin-6-yl)-N-methylcyclopropane-1-carboxamide], the IC50 in assay [1] was under 100 nM; in assay [2], 100 to 500 nM; in assay [3], 100 to 500 nM.
